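Dose response: 5 concentrations. Exposure: 48 h. Format: 96-well plates. Endpoint: linear interpolation; highest concentration if not reached. At the GI50, growth is halved. The concentration for full growth arrest is given as TGI.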
How the values were obtained:
Assay in all cases: inhibition of tumour cell growth, NCI panel, 48 h
[1] = test system: 786-0 renal
[2] = test system: A498 renal
[3] = test system: A549 NSCLC
[4] = test system: ACHN renal
[5] = test system: BT-549 breast
[6] = test system: CAKI-1 renal
[7] = test system: CCRF-CEM leukemia
[8] = test system: COLO 205 colon
[9] = test system: DU-145 prostate
[10] = test system: EKVX NSCLC
[11] = test system: HCC-2998 colon
[12] = test system: HCT-116 colon
[13] = test system: HCT-15 colon
[14] = test system: HL-60(TB) leukemia
[15] = test system: HOP-62 NSCLC
[16] = test system: HOP-92 NSCLC
[17] = test system: HS 578T breast
[18] = test system: HT29 colon
[19] = test system: IGROV1 ovarian
[20] = test system: K-562 leukemia
[21] = test system: KM12 colon
[22] = test system: LOX IMVI melanoma
[23] = test system: M14 melanoma
[24] = test system: MALME-3M melanoma
[25] = test system: MCF7 breast
[26] = test system: MDA-MB-231 breast
[27] = test system: MDA-MB-435
[28] = test system: MOLT-4 leukemia
[29] = test system: NCI-H226 lung
[30] = test system: NCI-H23 lung
[31] = test system: NCI-H460 lung
[32] = test system: NCI-H522 lung
[33] = test system: NCI/ADR-RES ovarian
[34] = test system: OVCAR-3 ovarian
[35] = test system: OVCAR-4 ovarian
[36] = test system: OVCAR-5 ovarian
[37] = test system: OVCAR-8 ovarian
[38] = test system: PC-3 prostate
[39] = test system: RPMI-8226 leukemia
[40] = test system: RXF 393 renal
[41] = test system: SF-268 CNS
[42] = test system: SF-295 CNS
[43] = test system: SF-539 CNS
[44] = test system: SK-MEL-2 melanoma
[45] = test system: SK-MEL-28 melanoma
[46] = test system: SK-MEL-5 melanoma
[47] = test system: SK-OV-3 ovarian
[48] = test system: SNB-19 CNS
[49] = test system: SNB-75 CNS
[50] = test system: SR leukemia
[51] = test system: SW-620 colon
[52] = test system: T-47D breast
[53] = test system: TK-10 renal
[54] = test system: U251 CNS
[55] = test system: UACC-257 melanoma
[56] = test system: UACC-62 melanoma
[57] = test system: UO-31 renal

Work on `COc1ccccc1CNCCCN1C(=O)c2ccc3c4c(ccc(c24)C1=O)C(=O)N(CCCNCCCN)C3=O` yielded a GI50 [1] of 712 nM, a TGI [1] of 7.18 µM and a GI50 [2] of 342 nM. The TGI [2] was 2150 nM, the GI50 [3] was 130 nM and the TGI [3] was 2130 nM. The GI50 [4] was 526 nM, the TGI [4] was 10.3 µM and the GI50 [5] was 1440 nM. For the same compound, the TGI [5] was 3.81 µM, the GI50 [6] was 1110 nM and the TGI [6] was 5.77 µM. It also gave a GI50 [7] of 185 nM, a TGI [7] of 4.13 µM and a GI50 [8] of 456 nM. It also gave a TGI [8] of 1850 nM, a GI50 [9] of 630 nM and a TGI [9] of 2390 nM. For the same compound, the GI50 [10] was 1020 nM, the TGI [10] was 2990 nM and the GI50 [11] was 350 nM. It also gave a TGI [11] of 1980 nM, a GI50 [12] of 136 nM and a TGI [12] of 3.04 µM. For the same compound, the GI50 [13] was 886 nM, the TGI [13] was 3.76 µM and the GI50 [14] was 744 nM. It also gave a TGI [14] of 2780 nM, a GI50 [15] of 444 nM and a TGI [15] of 3.34 µM. The GI50 [16] was 971 nM, the TGI [16] was 4.88 µM and the GI50 [17] was 1200 nM. It also gave a TGI [17] of 5.82 µM, a GI50 [18] of 159 nM and a TGI [18] of 1540 nM. It also gave a GI50 [19] of 272 nM, a TGI [19] of 2720 nM and a GI50 [20] of 216 nM. For the same compound, the TGI [20] was 3.76 µM, the GI50 [21] was 705 nM and the TGI [21] was 4.14 µM. The GI50 [22] was 232 nM, the TGI [22] was 1920 nM and the GI50 [23] was 972 nM. The TGI [23] was 2710 nM, the GI50 [24] was 898 nM and the TGI [24] was 2200 nM. For the same compound, the GI50 [25] was 123 nM, the TGI [25] was 2430 nM and the GI50 [26] was 1410 nM. It also gave a TGI [26] of 9.72 µM, a GI50 [27] of 570 nM and a TGI [27] of 2720 nM. For the same compound, the GI50 [28] was 182 nM, the TGI [28] was 1990 nM and the GI50 [29] was 746 nM. For the same compound, the TGI [29] was 3.2 µM, the GI50 [30] was 310 nM and the TGI [30] was 2550 nM. The GI50 [31] was 146 nM, the TGI [31] was 1410 nM and the GI50 [32] was 471 nM. The TGI [32] was 2310 nM, the GI50 [33] was 1160 nM and the TGI [33] was 5.71 µM. It also gave a GI50 [34] of 324 nM, a TGI [34] of 1420 nM and a GI50 [35] of 847 nM. The TGI [35] was 2670 nM, the GI50 [36] was 1410 nM and the TGI [36] was 7.36 µM. For the same compound, the GI50 [37] was 73.5 nM, the TGI [37] was 2830 nM and the GI50 [38] was 653 nM. For the same compound, the TGI [38] was 4.61 µM, the GI50 [39] was 581 nM and the TGI [39] was 4.88 µM. It also gave a GI50 [40] of 246 nM, a TGI [40] of 1930 nM and a GI50 [41] of 410 nM. It also gave a TGI [41] of 6.37 µM, a GI50 [42] of 450 nM and a TGI [42] of 4.61 µM. It also gave a GI50 [43] of 968 nM, a TGI [43] of 2820 nM and a GI50 [44] of 907 nM. For the same compound, the TGI [44] was 3.03 µM, the GI50 [45] was 740 nM and the TGI [45] was 2700 nM. For the same compound, the GI50 [46] was 482 nM, the TGI [46] was 1820 nM and the GI50 [47] was 1010 nM. The TGI [47] was 4.66 µM, the GI50 [48] was 605 nM and the TGI [48] was 4.05 µM. It also gave a GI50 [49] of 1290 nM, a TGI [49] of 3.29 µM and a GI50 [50] of 27.3 nM. It also gave a TGI [50] of 9.2 µM, a GI50 [51] of 105 nM and a TGI [51] of 1790 nM. The GI50 [52] was 791 nM, the TGI [52] was 3.08 µM and the GI50 [53] was 1570 nM. It also gave a TGI [53] of 6.36 µM, a GI50 [54] of 106 nM and a TGI [54] of 1620 nM. For the same compound, the GI50 [55] was 607 nM, the TGI [55] was 1980 nM and the GI50 [56] was 653 nM. It also gave a TGI [56] of 2170 nM, a GI50 [57] of 744 nM and a TGI [57] of 3.08 µM.

— PubChem BioAssay (NCI)
